# From patent publication US5506115A, “Reagent and method for determining activity of herpes protease” (G. D. Searle & Co., priority 1994, dated 1996)
# Where a SMILES comes first, the peptide text is derived from it. The star is where a group is joined. Dabcyl = CN(C)c1ccc(N=Nc2ccc(C(=O)*)cc2)cc1; EDANS = O=S(=O)(O)c1cccc2c(NCCN*)cccc12; GABA = NCCCC(=O)O
# Target: T1, CMV assemblin (Human cytomegalovirus, UniProt P16753)
# T1 construct: a DNA construction encoding the protease domain of the UL 80 open reading frame; His6 (N); made in house; host or cells: E. coli
# Assay: Hydrolysis of fluorogenic substrate by CMV assemblin (fluorescence time course, FIG. 2)
# Format: biochemical
# Conditions: 10 μM DE1, protease added; 340 nm excitation, 480 nm emission; within 30 minutes
# Description: The fluorometric assay developed to incorporate the substrate compounds of the invention is a method for the determination of a herpesvirus protease and inhibitors of a herpesvirus protease, e.g. a CMV protease (also known as assemblin) encoded by UL 80, which comprises placing a known amount of the herpesvirus protease in the wells of a "Microlite 1"96 well plate (Dynatek Laboratories, Inc.), adding a known amount of the substrate at 22° C., measuring the change in fluorescence with time and determining the molar velocity of the herpesvirus protease by comparing against a standard curve which relates changes in fluorescent intensity to changes in concentration of product. Potential inhibitors of the protease action can be added to the well to observe their effect on the protease cleavage activity.
# The arrow indicates the addition of protease to 10 μM DE1 [SEQ ID NO:34]. […] Fluorescence magnitude is plotted versus time.
# An assay was developed for screening potential herpesvirus protease inhibitors utilizing the substrates of the invention. Recombinant HCMV protease was purified from E. coli expressing a DNA construction encoding the protease domain of the UL 80 open reading frame of human cytomegalovirus strain AD169. The construction also encoded six additional histidine residues at the amino terminus of the protease. […]
# T1 sequence (P16753 1-256): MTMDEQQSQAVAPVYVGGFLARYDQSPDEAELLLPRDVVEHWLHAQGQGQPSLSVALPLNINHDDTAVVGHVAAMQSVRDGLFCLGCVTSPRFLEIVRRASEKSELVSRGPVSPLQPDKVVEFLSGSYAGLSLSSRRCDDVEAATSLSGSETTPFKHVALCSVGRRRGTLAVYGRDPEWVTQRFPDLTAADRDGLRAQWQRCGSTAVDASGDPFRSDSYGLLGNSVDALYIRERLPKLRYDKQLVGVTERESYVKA
smiles,measurement,value
"CC(C)C[C@H](NC(=O)[C@H](CCCNC(=N)N)NC(=O)[C@H](C)NC(=O)[C@H](CO)NC(=O)[C@H](C)NC(=O)[C@H](CC(N)=O)NC(=O)[C@@H](NC(=O)[C@@H](NC(=O)CCCNC(=O)c1ccc(N=Nc2ccc(N(C)C)cc2)cc1)C(C)C)C(C)C)C(=O)NCCNc1cccc2c(S(=O)(=O)O)cccc12 [DE1, DABCYL-γ-Abu-Val-Val-Asn-Ala-Ser-Ala-Arg-Leu-EDANS] ({Dabcyl-GABA}-VVNASARL-{EDANS})",increase in fluorescence emission on cleavage of the substrate,10 fold
